From patent US9611249B2, “1H-indazole-3-carboxamide compounds as glycogen synthase kinase 3 beta inhibitors” (AZIENDE CHIMICHE RIUNITE ANGELINI FRANCESCO A.C.R.A.F. …, priority 2012, dated 2017)
Where a name gives a salt, the structure may show the parent alone.

Assays:
human GSK-3β [1] = molecular target: T1, human GSK-3β (Homo sapiens (Human), UniProt P49841); experiment: Activity on human GSK-3β, LANCE substrate phosphorylation assay; format: biochemical; details: for IC50: compounds 1 to 15, LANCE assay, five concentrations 100 μM to 10 nM
Experimental: Activity on human GSK-3β was assessed using the following methods (according to Meijer et al., Chem. Biol., 2003-10:1255-1266).
In a first screening assay, compounds were tested in duplicate at a concentration of 10 μM.
Human recombinant enzyme GSK-3β was incubated for 90 minutes at 22° C. in the presence of compounds or vehicle in a reaction buffer containing ATP plus 100 nM unphosphorylated specific substrate peptide (Ulight-[…] K-amide). Substrate phosphorylation was measured by LANCE technology (PerkinElmer, Conn., USA).
In a second assay, the same compounds were assayed at five concentrations ranging from 100 μM to 10 nM with ten-fold dilutions in duplicate.
(§1) The IC50 values (concentration causing a half maximal inhibition of control specific activity), reported in table 4, were determined by non-linear regression analysis of the inhibition curves generated with mean replicate values using Hill equation curve fitting.

human GSK-3β [2] = molecular target: T1, human GSK-3β; experiment: GSK-3β LanthaScreen TR-FRET Eu Kinase binding and displacement assay; details: compounds 16 to 41, LanthaScreen TR-FRET binding and displacement assay, five concentrations 100 μM to 10 nM
Experimental: In a second assay, the same compounds were assayed at five concentrations ranging from 100 μM to 10 nM with ten-fold dilutions in duplicate. Compounds 1 to 15 were tested using the same first assay, compounds 16 to 41 were tested in another assay based on the binding and displacement of AlexaFluor® 647 labeled, ATP-competitive Kinase inhibitor scaffold using LanthaScreen™ TR-FRET technology Eu Kinase assay packet according to manufacturer's instruction (Life Technologies, Italy).
as §1

T1 sequence (P49841 whole entry): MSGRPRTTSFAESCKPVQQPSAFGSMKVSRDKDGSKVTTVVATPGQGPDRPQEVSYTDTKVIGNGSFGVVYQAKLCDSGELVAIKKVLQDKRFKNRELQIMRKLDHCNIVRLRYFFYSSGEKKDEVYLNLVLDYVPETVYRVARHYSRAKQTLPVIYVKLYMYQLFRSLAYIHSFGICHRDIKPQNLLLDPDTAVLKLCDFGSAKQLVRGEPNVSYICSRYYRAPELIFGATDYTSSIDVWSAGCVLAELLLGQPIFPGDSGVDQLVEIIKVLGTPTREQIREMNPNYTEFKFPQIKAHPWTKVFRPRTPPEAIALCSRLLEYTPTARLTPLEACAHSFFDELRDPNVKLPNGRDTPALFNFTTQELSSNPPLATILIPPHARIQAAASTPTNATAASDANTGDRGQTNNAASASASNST

SMILES	IC50 (human GSK-3β [1])	IC50 (human GSK-3β [2])	further results
COCCN1CCC(CNC(=O)c2n[nH]c3ccc(-c4ccc(OC)cc4)cc23)CC1 [Compound 12, N-{[1-(2-methoxyethyl)piperidin-4-yl]methyl}-5-(4-methoxyphenyl)-1H-indazole-3-carboxamide]	560 nM		
COCCN1CCC(CNC(=O)c2n[nH]c3ccc(-c4ccc(OC)nc4)cc23)CC1 [Compound 15, N-{[1-(2-methoxyethyl)piperidin-4-yl]methyl}-5-(6-methoxypyridin-3-yl)-1H-indazole-3-carboxamide]	50 nM		
COCCN1CCC(CNC(=O)c2n[nH]c3ccc(-c4cncc(OC)c4)cc23)CC1 [Compound 10, N-{[1-(2-methoxyethyl)piperidin-4-yl]methyl}-5-(5-methoxypyridin-3-yl)-1H-indazole-3-carboxamide]	30 nM		
COCCN1CCC(CNC(=O)c2n[nH]c3ccc(-c4ccccc4C)cc23)CC1 [Compound 16, N-{[1-(2-methoxyethyl)piperidin-4-yl]methyl}-5-(2-methylphenyl)-1H-indazole-3-carboxamide]		580 nM	
COCCN1CCC(CNC(=O)c2n[nH]c3ccc(-c4ccc(C)cc4)cc23)CC1 [Compound 13, N-{[1-(2-methoxyethyl)piperidin-4-yl]methyl}-5-(4-methylphenyl)-1H-indazole-3-carboxamide]	560 nM		
COCCN1CCC(CNC(=O)c2n[nH]c3ccc(-c4cnccc4OC)cc23)CC1 [Compound 5, N-{[1-(2-methoxyethyl)piperidin-4-yl]methyl}-5-(4-methoxypyridin-3-yl)-1H-indazole-3-carboxamide]	50 nM		
CCOc1cc(F)c(F)cc1-c1ccc2[nH]nc(C(=O)NCC3CCN(CCOC)CC3)c2c1 [Compound 18, 5-(2-ethoxy-4,5-difluorophenyl)-N-{[1-(2-methoxyethyl)piperidin-4-yl]methyl}-1H-indazole-3-carboxamide]		1060 nM	
COCCN1CCC(CNC(=O)c2n[nH]c3ccc(-c4cccnc4OC)cc23)CC1 [Compound 14, N-{[1-(2-methoxyethyl)piperidin-4-yl]methyl}-5-(2-methoxypyridin-3-yl)-1H-indazole-3-carboxamide]	1400 nM		
COCCN1CCC(CNC(=O)c2n[nH]c3ccc(-c4ccc(C)nc4)cc23)CC1 [Compound 7, N-{[1-(2-methoxyethyl)piperidin-4-yl]methyl}-5-(6-methylpyridin-3-yl)-1H-indazole-3-carboxamide]	60 nM		
COCCN1CCC(CNC(=O)c2n[nH]c3ccc(-c4ccccc4F)cc23)CC1 [Compound 6, 5-(2-fluorophenyl)-N-{[1-(2-methoxyethyl)piperidin-4-yl]methyl}-1H-indazole-3-carboxamide]	70 nM		
COCCN1CCC(CNC(=O)c2n[nH]c3ccc(-c4ccc(O)cc4)cc23)CC1 [Compound 11, 5-(4-hydroxyphenyl)-N-{[1-(2-methoxyethyl)piperidin-4-yl]methyl}-1H-indazole-3-carboxamide]	890 nM		
COc1cncc(-c2ccc3[nH]nc(C(=O)NCC4CCN(CC(=O)O)CC4)c3c2)c1 [Compound 30, {4-[({[5-(5-methoxypyridin-3-yl)-1H-indazol-3-yl]carbonyl}amino)methyl]piperidin-1-yl}acetic acid]		20 nM	
O=C(O)CN1CCC(CNC(=O)c2n[nH]c3cc(O)c(Br)cc23)CC1 [Compound 41, [4-({[(5-bromo-6-hydroxy-1H-indazol-3-yl)carbonyl]amino}methyl)piperidin-1-yl] acetic acid]			inhibition at 10 µM (human GSK-3β [1]; 10 μM, in duplicate, first screening assay): 71%
COc1ccc2[nH]nc(C(=O)NCC3CCN(CCCNC(=O)c4ccccc4)CC3)c2c1 [Compound 36, 5-methoxy-N-[(1-{3-[(phenylcarbonyl)amino]propyl}piperidin-4-yl)methyl]-1H-indazole-3-carboxamide]		3420 nM	
O=C(O)CN1CCC(CNC(=O)c2n[nH]c3ccc(-c4cccc(Cl)c4Cl)cc23)CC1 [Compound 27, {4-[({[5-(2,3-dichlorophenyl)-1H-indazol-3-yl]carbonyl}amino)methyl]piperidin-1-yl}acetic acid hydrate]		100 nM	

Further lines, with some results ahead:

IC50 (human GSK-3β [1])	IC50 (human GSK-3β [2])	SMILES	further results
	910 nM	Cc1noc(C)c1-c1ccc2[nH]nc(C(=O)NCC3CCN(CC(=O)O)CC3)c2c1 [Compound 26, {4-[({[5-(3,5-Dimethylisoxazol-4-yl)-1H-indazol-3-yl]carbonyl}amino)methyl]piperidin-1-yl}acetic acid hydrate]	
	880 nM	CC#CC(=O)NCCCN1CCC(CNC(=O)c2n[nH]c3ccc(OC)cc23)CC1 [Compound 40, N-({1-[3-(but-2-ynoylamino)propyl]piperidin-4-yl}methyl)-5-methoxy-1H-indazole-3-carboxamide]	
	780 nM	C/C=C/C(=O)NCCCN1CCC(CNC(=O)c2n[nH]c3ccc(OC)cc23)CC1 [Compound 38, N-[(1-{3-[(2E)-but-2-enoylamino]propyl}piperidin-4-yl)methyl]-5-methoxy-1H-indazole-3-carboxamide]	
	110 nM	O=C(O)CN1CCC(CNC(=O)c2n[nH]c3ccc(-c4cccc(F)c4)cc23)CC1 [Compound 28, {4-[({[5-(3-fluorophenyl)-1H-indazol-3-yl]carbonyl}amino)methyl]piperidin-1-yl} acetic acid hydrate]	
	1030 nM	COc1ccc2[nH]nc(C(=O)NCC3CCN(CCCC(=O)O)CC3)c2c1 [Compound 24, 4-[4-({[(5-methoxy-1H-indazol-3-yl)carbonyl]amino}methyl)piperidin-1-yl] butanoic acid]	
	530 nM	O=C(NCC1CCNCC1)c1n[nH]c2ccc(Br)cc12 [Compound 25b, 5-Bromo-N-(piperidin-4-ylmethyl)-1H-indazole-3-carbox-amide hydrochloride]	
200 nM		COCCN1CCC(CNC(=O)c2n[nH]c3ccc(-c4ccccc4)cc23)CC1 [Compound 9, N-{[1-(2-methoxyethyl)pipendin-4-yl]methyl}-5-phenyl-1H-indazole-3-carboxamide]	
	2040 nM	CCCCCc1ccc2[nH]nc(C(=O)NCC3CCN(CC(=O)O)CC3)c2c1 [Compound 35, [4-({[(5-pentyl-1H-indazol-3-yl)carbonyl]amino}methyl)piperidin-1-yl] acetic acid]	
	220 nM	O=C(O)CN1CCC(CNC(=O)c2n[nH]c3ccc(-c4cncnc4)cc23)CC1 [Compound 25, {4-[({[5-(Pyrimidin-5-yl)-1H-indazol-3-yl]carbonyl}amino)methyl]piperidin-1-yl}acetic acid hydrate]	
30 nM		COCCN1CCC(CNC(=O)c2n[nH]c3ccc(-c4cccnc4)cc23)CC1 [Compound 4, N-{[1-(2-methoxyethyl)piperidin-4-yl]methyl}-5-(pyridin-3-yl)-1H-indazole-3-carboxamide]	
	3910 nM	CC(C)c1ccc2[nH]nc(C(=O)NCC3CCN(CC(=O)O)CC3)c2c1 [Compound 32, {4-[({[5-(propan-2-yl)-1H-indazol-3-yl]carbonyl}amino)methyl]piperidin-1-yl} acetic acid]	
	970 nM	CCCC(=O)NCCCN1CCC(CNC(=O)c2n[nH]c3ccc(OC)cc23)CC1 [Compound 37, N-({1-[3-(butanoylamino)propyl]piperidin-4-yl}methyl)-5-methoxy-1H-indazole-3-carboxamide]	
	1070 nM	O=C(O)CN1CCC(CNC(=O)c2n[nH]c3ccc(C4CCCCC4)cc23)CC1 [Compound 34, [4-({[(5-cyclohexyl-1H-indazol-3-yl)carbonyl]amino}methyl)piperidin-1-yl] acetic acid]	
	1040 nM	O=C(O)CN1CCC(CNC(=O)c2n[nH]c3ccc(C4=CCOCC4)cc23)CC1 [Compound 33, {4-[({[5-(3,6-dihydro-2H-pyran-4-yl)-1H-indazol-3-yl]carbonyl}amino)methyl]piperidin-1-yl}acetic acid]	
	950 nM	CCC(=O)NCCCN1CCC(CNC(=O)c2n[nH]c3ccc(OC)cc23)CC1 [Compound 39, 5-methoxy-N-({1-[3-(propanoylamino)propyl]piperidin-4-yl}methyl)-1H-indazole-3-carboxamide]	
